Results on one compound are retold here after patent US20230000876A1, “TREATING CANCERS WITH A CYCLIN-DEPENDENT KINASE INHIBITOR” (Nuvation Bio Inc., priority 2021, published 2023).

Where two headings read alike, the source gives them in different places.

One data set concerns U-118MG xenograft tumors. Kind of data set: U-118MG glioma subcutaneous xenograft model. In kind it is in vivo, female CB17 SCID mice. Particulars: Group 3: Compound (I) 30 mg/kg PO, QD; PG-D27.
In data set [1] the test system is U-87MG-luc orthotopic intracranial tumors. In words: U-87MG-luc glioblastoma orthotopic intracranial model, survival. The data set is classed as in vivo, female BALB/c nude mice. On the procedure:
U-87MG-luc cells were derived from U-87MG parental cells acquired from ATCC by stably introducing the gene that encodes the luciferase (luc) protein. The U-87MG-luc cells were cultured at 37° C. in an atmosphere of 5% CO2 in air. The tumor cells were routinely subcultured twice weekly. The cells growing in an exponential growth phase were harvested and counted for tumor inoculation.
3×10^5 U-87MG-luc tumor cells were micro-injected into the right lobe (caudate nucleus) of the brain of each mouse. A total of 94 mice were inoculated. Ten days after cell inoculation, bioluminescence were measured by Xenogen IVIS Lumina II machine, 70 mice were selected and randomly assigned into 7 groups based on bioluminescence intensity and bodyweight. The mice were dosed according to Table 25.

Data set [2] can be described thus: Pharmacokinetics and brain distribution after single oral dose, mice. The data set is classed as in vivo, male CD1 mice. On the procedure:
The pharmacokinetics and brain distribution in maleCD1 mice and Sprague-Dawley rats following a single oral (PO) dose was evaluated. The compound of formula (I) was administered once at 10 mg/kg to mice and at 1, 10, 30, and 100 mg/kg to rats. All doses, compound of formula (I) concentrations, and derived PK parameters are expressed as the free base of the compound of formula (I).
The in-life portion of these studies was performed by Alliance Pharma (Malvern, Pa.) according to Protocols 200107-02 (mice) and 1910158-02 (rats). Animals were assigned randomly to the dose groups and were fasted 12 hours prior to dosing. Water was available ad libitum. The compound of formula (I) (as an HCl salt) was given to male CD1 mice at 10 mg/kg single PO dose, while in Sprague-Dawley rats, the doses were 1, 10, 30, and 100 mg/kg. In both studies, the compound of formula (I) was formulated in 0.5% hydroxypropyl methylcellulose (HPMC)/0.2% Tween 80 and the dosing volume was 5 mL/kg for all dose groups.
Whole blood was collected at 2, 4, 6, and 12 hours post dose from mice and predose and 1, 2, 4, 8, 12, and 24 hours post dose from rats into tubes containing dipotassium ethylenediaminetetraacetic acid (K2EDTA). Blood was obtained from 3 mice and 4 rats per time-point per dose level. The blood samples were processed into plasma analyzed at Alliance Pharma using the method as described below.
The brain tissue was collected from mice at 2, 4, 6, and 12 hours post dose and was collected from rats at 6 hours post dose given 1, 10, 30, or 100 mg/kg of the compound of formula (I). Brain tissue was obtained from 3 mice per time-point at the 10 mg/kg dose level and 4 rats per dose level at the 6-hour post dose time-point.
Brain tissue was rinsed by phosphate-buffered saline (PBS) buffer immediately after harvest, weighed, and mixed with solvent (MeOH:H2O [volume over volume of 20:80]) with a ratio of tissue to solvent of 1:4 (weight over volume). […] After homogenization, the homogenate was aliquoted out for sample analysis.
The concentrations of the compound of formula (I) in the plasma and brain homogenate were determined versus a calibration curve prepared in plasma and naïve brain homogenate, respectively. Samples were deproteinized with acetonitrile containing tolbutamide as internal standard. After centrifugation, the supernatants were analyzed by liquid chromatography with tandem mass spectrometry (LC-MS/MS). Chromatography was performed with a Zorbax SB-C18 (50×2.1 mm, […]) column under gradient conditions described in Table 22. Mobile Phase A (0.1% formic acid [FA] in water) and Mobile Phase B (0.1% FA in acetonitrile) were delivered as a flow rate of 0.8 mL/min. LC-MS/MS was performed using a positive TurboIonSpray® interface on a SciexAPI 4000 and multiple-reaction monitoring (MRM) over a concentration range of 1 ng/mL to 1000 (rats) or 2000 (mice) ng/mL for the plasma and brain homogenate samples.
The mean plasma concentration-time data of the compound of formula (I) was used to determine the pharmacokineticparameters by standard noncompartmental methods using Phoenix® WinNonlin (version 8.2.0; Certara, Princeton, N.J.). Graphs were plotted in Prism® (version 2.3.0; GraphPad, San Diego, Calif.). Concentrations were rounded to 3 significant figures.

Consider `CC(C)N1CCOc2c(F)cc(-c3nc(Nc4ccc(C5CCN(C)CC5)cn4)ncc3F)cc21` [Compound (I), 5-fluoro-4-(8-fluoro-4-isopropyl-3,4-dihydro-2H-benzo[b][1,4]oxazin-6-yl)-N-(5-(1-methylpiperidin-4-yl)pyridin-2-yl)pyrimidin-2-amine], for which the TGI with U-118MG xenograft tumors is 96.40%. In addition, the Median survival amounted to 37 days in data set [1] (1 mg/kg PO*QD (vehicle 37 days)); 40.5 days in data set [1] (3 mg/kg PO*QD (vehicle 37 days)); 45 days in data set [1] (10 mg/kg PO*QD (vehicle 37 days)); 39.5 days in data set [1] (30 mg/kg IV*QW (vehicle 37 days)); 56 days in data set [1] (30 mg/kg PO*QD (vehicle 37 days)). Further, in data set [1] (PO at 10 mg/kg and 30 mg/kg), the “Survival compared to vehicle treated group” value was “significantly prolonged survival”. For the same compound, the “Half-life in brain versus plasma” value in data set [2] (in vivo animal models, oral administration) is “longer half-life in the brain than in the plasma”. The Kp at 2 h in data set [2] (male, CD1, mouse, brain, po, 10 mg/kg, mice, single PO 10 mg/kg, 2 h, read-out: Brain:Plasma Ratio, mean (SD)) came to 1.7. Besides, the Kp at 4 h in data set [2] (male, CD1, mouse, brain, po, 10 mg/kg, mice, single PO 10 mg/kg, 4 h, read-out: Brain:Plasma Ratio, mean (SD)) was 2.1. Also, the Kp at 6 h in data set [2] (male, CD1, mouse, brain, po, 10 mg/kg, mice, single PO 10 mg/kg, 6 h, read-out: Brain:Plasma Ratio, mean (SD)) came out at 1.9. The Kp at 12 h is 3.3 in data set [2] (male, CD1, mouse, brain, po, 10 mg/kg, mice, single PO 10 mg/kg, 12 h, read-out: Brain:Plasma Ratio, mean (SD)); more than 1.5 in data set [2] (male, CD1, mouse, brain, po, 10 mg/kg, mice, single PO 10 mg/kg, at 2, 4, 6, and 12 hours post-dose, read-out: Brain-to-plasma concentration ratio). For the same compound, the concentration at 2 h in data set [2] (male, CD1, mouse, brain, mice, single PO 10 mg/kg, 2 h, read-out: Brain Conc) turned out to be 309 ng/mL; in data set [2] (male, CD1, mouse, plasma, mice, single PO 10 mg/kg, 2 h, read-out: Plasma Conc), 187 ng/mL. The concentration at 4 h in data set [2] (male, CD1, mouse, brain, mice, single PO 10 mg/kg, 4 h, read-out: Brain Conc) was 436 ng/mL; in data set [2] (male, CD1, mouse, plasma, mice, single PO 10 mg/kg, 4 h, read-out: Plasma Conc), 209 ng/mL. Besides, the concentration at 6 h was 464 ng/mL in data set [2] (male, CD1, mouse, brain, mice, single PO 10 mg/kg, 6 h, read-out: Brain Conc) and 247 ng/mL in data set [2] (male, CD1, mouse, plasma, mice, single PO 10 mg/kg, 6 h, read-out: Plasma Conc). The concentration at 12 h in data set [2] (male, CD1, mouse, brain, mice, single PO 10 mg/kg, 12 h, read-out: Brain Conc) stood at 345 ng/mL; in data set [2] (male, CD1, mouse, plasma, mice, single PO 10 mg/kg, 12 h, read-out: Plasma Conc), 105 ng/mL.

As usually defined, the TGI is the reduction of tumour growth relative to the control group.
